# Measured values from article PMC2765504 (Journal of natural products, 2009).
# Biological target: T1, EncN (Streptomyces maritimus, UniProt Q9KHK1)
# T1 sequence (Q9KHK1 1-522): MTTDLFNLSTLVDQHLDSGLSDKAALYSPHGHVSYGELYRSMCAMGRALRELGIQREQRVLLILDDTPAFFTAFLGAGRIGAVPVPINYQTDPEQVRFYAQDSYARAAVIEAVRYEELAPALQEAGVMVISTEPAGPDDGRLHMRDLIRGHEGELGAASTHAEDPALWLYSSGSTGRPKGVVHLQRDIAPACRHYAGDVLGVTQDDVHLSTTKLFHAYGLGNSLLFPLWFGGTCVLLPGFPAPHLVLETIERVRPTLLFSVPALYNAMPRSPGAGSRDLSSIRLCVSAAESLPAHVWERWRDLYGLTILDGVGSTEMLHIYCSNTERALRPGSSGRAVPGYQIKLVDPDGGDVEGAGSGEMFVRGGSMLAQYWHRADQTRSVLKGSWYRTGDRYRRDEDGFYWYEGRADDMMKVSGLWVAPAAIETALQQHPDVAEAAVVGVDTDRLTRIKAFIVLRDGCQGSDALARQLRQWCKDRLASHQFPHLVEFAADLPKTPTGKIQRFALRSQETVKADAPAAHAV
# T1 sequence (Q9KHK4 1-82 partner): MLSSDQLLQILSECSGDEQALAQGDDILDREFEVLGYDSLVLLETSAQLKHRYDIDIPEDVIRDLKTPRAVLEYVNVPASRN
# Experiment: FTMS of acyl loading on holo-EncC
# Type: biochemical
# Conditions: ATP 10 mM, EncN 2 uM, holo-EncC 20 uM
SMILES,FTMS of acyl loading on holo-EncC (benzoic acid 10 mM),FTMS of acyl loading on holo-EncC (benzoic acid omitted)
O=C(O)c1ccccc1 [benzoic acid],"Upon incubation with EncN, benzoate was transferred in typical nonribosomal peptide synthetase fashion",–
O=C(O)c1ccccc1O [salicylic acid],–,"in its absence, EncN preferentially activates and loads salicylate"
